# Molecular target: Signal transducer and activator of transcription 3 (Homo sapiens, UniProt P40763)
# Experiment: EMSA Based Assay: A screening process evaluated in vitro disruption of STAT3(dimer)-DNA formation through a previously published EMSA based assays, giving a valuable insight into the inhibitor's mode of action against the STAT3 homo-dimer.
# Chain of Signal transducer and activator of transcription 3 (P40763 whole entry): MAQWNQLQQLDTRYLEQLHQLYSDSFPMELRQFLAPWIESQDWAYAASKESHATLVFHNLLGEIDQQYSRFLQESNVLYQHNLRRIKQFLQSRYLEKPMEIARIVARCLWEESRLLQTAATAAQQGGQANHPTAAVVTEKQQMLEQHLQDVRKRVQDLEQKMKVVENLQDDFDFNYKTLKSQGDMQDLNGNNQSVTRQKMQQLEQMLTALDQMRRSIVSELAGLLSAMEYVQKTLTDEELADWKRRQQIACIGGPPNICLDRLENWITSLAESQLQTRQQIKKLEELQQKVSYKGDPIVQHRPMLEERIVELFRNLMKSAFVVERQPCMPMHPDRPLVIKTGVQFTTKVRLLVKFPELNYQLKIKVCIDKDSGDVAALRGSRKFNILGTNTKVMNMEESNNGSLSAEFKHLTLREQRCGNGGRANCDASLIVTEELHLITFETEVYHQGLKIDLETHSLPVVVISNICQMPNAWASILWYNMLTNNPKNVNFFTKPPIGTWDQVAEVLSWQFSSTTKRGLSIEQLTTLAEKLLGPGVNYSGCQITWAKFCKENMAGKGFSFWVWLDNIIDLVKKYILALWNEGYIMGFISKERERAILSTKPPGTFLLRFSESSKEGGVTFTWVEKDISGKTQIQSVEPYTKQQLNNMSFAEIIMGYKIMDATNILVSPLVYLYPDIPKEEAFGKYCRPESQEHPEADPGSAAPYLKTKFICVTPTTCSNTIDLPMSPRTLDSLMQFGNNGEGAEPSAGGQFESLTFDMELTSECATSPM
row,Compound,IC50
1,O=C(Nc1ccc(C2CCCCC2)cc1)c1nc(-c2cccc3ccccc23)sc1Cc1ccc(OP(=O)(O)O)cc1,350 µM
2,O=C(O)c1nc(-c2ccccc2)oc1Cc1ccc(OP(=O)(O)O)cc1,> 1000 µM
3,O=C(Nc1ccc(C2CCCCC2)cc1)c1nc(-c2ccccc2)oc1Cc1ccc(OP(=O)(O)O)cc1,33 µM
4,CCCCCCNC(=O)c1nc(-c2cccc3ccccc23)sc1Cc1ccc(OP(=O)(O)O)cc1,25 µM
5,CCCCCCNC(=O)c1nc(-c2cccc3ccccc23)oc1Cc1ccc(OP(=O)(O)O)cc1,58 µM
6,CCCCCCNC(=O)c1nc(-c2ccccc2)sc1Cc1ccc(OP(=O)(O)O)cc1,150 µM
7,O=C(Nc1ccc(C2CCCCC2)cc1)c1nc(-c2cccc3ccccc23)oc1Cc1ccc(OP(=O)(O)O)cc1,255 µM
8,CCCCCCNC(=O)c1nc(-c2ccccc2)oc1Cc1ccc(OP(=O)(O)O)cc1,> 1000 µM
9,O=C(Nc1ccc(C2CCCCC2)cc1)c1nc(-c2ccccc2)oc1Cc1ccc(O)cc1,> 1000 µM
10,O=C(Nc1ccc(C2CCCCC2)cc1)c1nc(-c2ccccc2)sc1Cc1ccc(OP(=O)(O)O)cc1,775 µM

# — ChEMBL document CHEMBL3638769, “Inhibitors of STAT3” (2015)
